In patent US20090088411A1, “No-donating corticosteroid with improved pharmacokinetic, anti-inflammatory and vasodilatory properties” (Topigen Pharmaceuticals Inc., priority 2007, published 2009):
Where two headings read alike, the source gives them in different places. Marks after values point to notes of the source that are not given here.

Key:
sputum eosinophils = assay: Sputum differential cell count: eosinophils; format: in vivo, humans; conditions: mean (SD)
Experimental: (§1) Although this study was only powered for neutrophils, the following parameters were also evaluated: sputum total cell and differential cell counts, using known methods, on days 0, 15 and day 22; pre-dose FEV1 measurements on days 0, 1, 14, 15 and 22; peak flow measurements throughout the study (miniwright meter); use of daily rescue medication (salbutamol) throughout the study; the response to methacholine challenge test; and the eNO levels (chemiluminescence after reaction with ozone) on days 0, 15 and 22 and plasma CRP levels on days 0, 15 and 22.
(§2) Those subjects who completed the 14-day run-in period were assigned to receive either an inhaled version of a compound of the present invention (in this case, budesonide 21-(4′-nitrooxymethyl)benzoate, designated hereafter as “TPI-1020”) or budesonide over a 21-day period. The doses administered were based on equimolar amounts of budesonide and were as follows: budesonide 400 μg bid for 14 days then 800 μg bid for 7 days; TPI-1020: 600 μg bid for 14 days then 1200 μg bid for 7 days. Study treatments were delivered in lactose-based blends using the capsule-based Aeroliser dry powder inhaler. Budesonide capsules (Miflonide®, Novartis Pharmaceuticals) delivered 383 μg as compared to 423 μg of budesonide for TPI-1020 (equivalent to 9.5% more budesonide delivered to the body in the TPI-1020 group). However, the fine particle dose of budesonide was 104 μg for the budesonide capsules and only 78 μg for the TPI-1020 capsules (equivalent to 25% less budesonide delivered to the lung in the TPI-1020 group). No other asthma medication except rescue salbutamol was permitted during the study.

blood eosinophils = assay: Blood eosinophils; format: in vivo, humans; conditions: mean (SD)
Experimental: as §2

[1] = set-up: species or system humans; conditions: human, in vivo
Excerpt: (§3) A clinical study was undertaken in humans to test certain aspects of a preferred NO-donating budesonide derivative, TPI-1020, as compared to the corticosteroid, budesonide which was not modified with a NO-donating moiety. Specifically, the objectives of this study were to determine the safety, pharmacodynamic and pharmacokinetic activity of multiple doses of inhaled NO-donating budesonide derivatives compared to that of equimolar doses of inhaled budesonide in subjects with mild asthma who smoke. We chose patients with asthma who smoke since these patients had reported to have not only an increase in eNO but also an increase in neutrophils within their sputum (as described in COPD). While assessing the safety of these compounds in such patients we could thus explore the effects of the same in patients with increased sputum neutrophils.
as §2
The total number of adverse events reported by patients receiving budesonide and TPI-1020 is graphically depicted in FIG. 1. More specifically, FIG. 1 depicts the total number of either treatment-related or physician-determined adverse events for each drug during the 21 day therapeutic period.

[2] = Supine and standing blood pressure (vital signs), clinical study; format: in vivo, humans; conditions: for change in standing pulse pressure: after 22 days, p=0.015 between groups
Experimental: as §2

[3] = Asthma control scoring system questionnaire (ACSS); format: in vivo, humans; conditions: mean (SD)
Experimental: as §2

sputum neutrophils = assay: Sputum differential cell count: neutrophils; format: in vivo, humans; conditions: for mean sputum neutrophils / decrease in mean sputum neutrophils: post hoc; for median sputum neutrophils: all patients; for decrease in mean sputum neutrophils: over 22 days
Excerpt: as §3, §1, §2
The sample size was chosen to provide information about the primary study objective (safety) and with the power to detect a 20% difference in the decrease in sputum neutrophils with TPI-1020, versus that occurring with budesonide. There are no published studies in mild smokers with asthma that have described the variability in sputum neutrophils. However, based on the COPD publication by Gamble et al., almost all patients with COPD have increased sputum neutrophils (>20%). We calculated that if 13 subjects per group completed the study, a difference of 20% in neutrophils (%) between groups could be detected with a power of 80%.

blood lymphocytes = assay: Blood lymphocytes; format: in vivo, humans; conditions: mean (SD)
Experimental: as §2

[4] = Use of daily rescue medication (salbutamol); format: in vivo, humans; conditions: mean (SD)
Experimental: as §1, §2

[5] = Methacholine challenge test (PC20); format: in vivo, humans; conditions: mean (SD)
Experimental: as §1, §2

FEV1 spirometry = format: in vivo, humans; conditions: for FEV1 (ITT, L) / FEV1 (PD, L): mean (SD)
Experimental: as §1, §2

neutrophils = assay: Guinea pig model of LPS induced lung inflammation; format: in vivo
[6] = Plasma pharmacokinetic profile after inhalation; format: in vivo, humans
Experimental: as §2
TPI-1020 was not detected in the plasma of treated subjects at all the time points that were assessed over an 8 hour period on days 1 and 14 and on day 22, approximately 12 hours after the last dose. The budesonide plasma phamacokinetic analysis was different in the TPI-1020 group when compared to the budesonide group (FIG. 6). The Cmax, Tmax, and AUC were, respectively in the TPI-1020 vs. the budesonide treated group. For the data presented in FIG. 6, plasma budesonide was measured over an 8 hour period in budesonide (400 mcg, n=10) and TPI-1020 (600 mcg, n=8) treated patients after the first dose (day 1, dotted line) and day 14 (solid line).

[7] = Peak flow measurements (PEF, miniwright meter); format: in vivo, humans; conditions: mean (SD)
Experimental: as §1, §2

[8] = tested on: exhaled nitric oxide (eNO); assay: Exhaled NO levels (chemiluminescence); format: in vivo, humans; conditions: for eNO (ppb): mean (SD); for decrease in eNO: equimolar doses, baseline to day 22
Experimental: as §1, §2

[9] = tested on: HPA (hypothalamic-pituitary-adrenal) axis; conditions: in vivo
Excerpt: (§4) This undesirable HPA axis suppression is typically measured by a reduction in urinary cortisol excretion.
(§5) Safety parameters consisted of adverse events and serious adverse events, vital signs, asthma symptoms, laboratory determinations of CBC, urinalysis, regular blood biochemistry, plasma C-reactive protein (CRP), plasma and urinary free cortisol levels, spirometry and electrocardiograms (ECGs).

C-reactive protein (CRP) = assay: Plasma CRP levels; format: in vivo, humans; conditions: for patients in whom CRP decreased: 22 days of therapy compared to baseline; for CRP (mg/L): mean (SD)
Experimental: as §1, §2

[10] = tested on: HPA (hypothalamic-pituitary-adrenal) axis; conditions: in vivo; remark: listed apart in the source
Excerpt: as §4, §5

[11] = tested on: HPA (hypothalamic-pituitary-adrenal) axis; assay: Morning plasma cortisol level
Excerpt: as §4, §5

[12] = tested on: HPA (hypothalamic-pituitary-adrenal) axis; assay: 24-hour urinary free cortisol; conditions: vs baseline
Excerpt: as §4, §5

[13] = after 22 days, patients with baseline sputum neutrophils <20% (normal)
[14] = after 22 days, patients with baseline sputum neutrophils >20%
[15] = baseline, patients with baseline sputum neutrophils <20% (normal)
[16] = baseline, patients with baseline sputum neutrophils >20%
[17] = patients with baseline sputum neutrophils >20%
[18] = day 15 versus baseline, p=0.03 between groups

SMILES: CCCC1O[C@@H]2C[C@H]3[C@@H]4CCC5=CC(=O)C=C[C@]5(C)[C@H]4[C@@H](O)C[C@]3(C)[C@]2(C(=O)COC(=O)c2ccc(CO[N+](=O)[O-])cc2)O1 (stereo partly shown) [TPI-1020, budesonide 21-(4′-nitrooxymethyl)benzoate]
- Sputum eos (%) (sputum eosinophils; Baseline): 8.7 (10.8) %
- Sputum eos (%) (sputum eosinophils; Day 22): 3.3 (4.0) %
- Blood eos (%) (blood eosinophils; Baseline): 2.8 (2.7) %
- Blood eos (%) (blood eosinophils; Day 22): 1.8 (1.7) %
- drug-related adverse events [1]: 6
- number of subjects that reported adverse events [1]: 6
- total treatment-emergent adverse events [1]: 13
- change in standing pulse pressure [2]: −9.33 mmHg
- decrease in standing diastolic blood pressure ([2]; day 22 versus baseline): 4.0%
- decrease in standing systolic blood pressure ([2]; day 22 versus baseline): 9.9%
- decrease in supine diastolic blood pressure ([2]; day 22 versus baseline): 3.4%
- decrease in supine systolic blood pressure ([2]; day 22 versus baseline): 3.2%
- effect on blood pressure values ([2]; over the 22 day period, vs baseline): decreased blood pressure values
- ACSS ([3]; Baseline): 65 (11.1)
- ACSS ([3]; Day 22): 71.5 (16.3)
- mean sputum neutrophils (sputum neutrophils; [13]): 17.9%
- mean sputum neutrophils (sputum neutrophils; [14]): 33.4%
- mean sputum neutrophils (sputum neutrophils; [15]): 11.5%
- mean sputum neutrophils (sputum neutrophils; [16]): 50.8%
- median sputum neutrophils (sputum neutrophils; day 0 prior to therapy): 29.8%
- decrease in median sputum neutrophils (sputum neutrophils; day 0 to day 22, all patients): 32.6%
- median sputum neutrophils (sputum neutrophils; day 22 (end of therapy)): 20.1%
- decrease in mean sputum neutrophils (sputum neutrophils; [17]): 35.8%
- patients in whom sputum neutrophils decreased to <30% (sputum neutrophils; patients with high neutrophils at baseline): 57.1%
- Blood lymphocytes (%) (blood lymphocytes; Baseline): 20.3 (16.6) %
- Blood lymphocytes (%) (blood lymphocytes; Day 22): 18.4 (15.4)* %
- Doses of Rescue Rx ([4]; Baseline): 14.7 (11)
- Rescue free days (%) ([4]; Baseline): 39 (39) %
- Doses of Rescue Rx ([4]; Day 22): 3.9 (4.5)
- Rescue free days (%) ([4]; Day 22): 63.5 (33) %
- PC20 (mg/ml) ([5]; Baseline): 3.5 (5.7) mg/ml
- PC20 (mg/ml) ([5]; Day 22): 4.0 (8.9) mg/ml
- FEV1 (ITT, L) (FEV1 spirometry; Baseline): 3.0 (0.5) L
- FEV1 (PD, L) (FEV1 spirometry; Baseline): 3.0 (0.6) L
- FEV1 (PD, L) (FEV1 spirometry; Day 1): 2.8 (0.6) L
- FEV1 (PD, L) (FEV1 spirometry; Day 14): 3.0 (0.6) L
- FEV1 (PD, L) (FEV1 spirometry; Day 15): 2.8 (0.7) L
- FEV1 (ITT, L) (FEV1 spirometry; Day 22): 3.0 (0.5) L
- FEV1 (PD, L) (FEV1 spirometry; Day 22): 3.0 (0.6) L
- acute effects on FEV1 over an 8 hour period (FEV1 spirometry; days 1 and 14, TPI-1020 600 mcg vs budesonide 400 mcg): no acute effects on FEV1 when compared to budesonide
- recruitment of neutrophils into the lungs (neutrophils): inhibited the recruitment of neutrophils
- TPI-1020 in plasma ([6]; all time points over 8 hours on days 1 and 14, and day 22 about 12 hours after last dose): not detected
- AUC of plasma budesonide relative to equimolar budesonide group ([6]; inhaled, equimolar doses): significantly lower AUC values
- Cmax of plasma budesonide relative to equimolar budesonide group ([6]; inhaled, equimolar doses): more than five fold lower
- AUC of plasma budesonide relative to equimolar budesonide group ([6]; inhaled, equimolar doses, listed as NO-donating budesonide derivative): more than five fold lower
- PEF (AM, L/min) ([7]; Baseline): 365.1 (93) L/min
- PEF (AM, L/min) ([7]; Day 22): 375.3 (97) L/min
- eNO (ppb) ([8]; Baseline): 29 (27) ppb
- eNO (ppb) ([8]; Day 22): 16.9 (14) ppb
- decrease in eNO [8]: 12.1 ppb
- morning plasma cortisol level [9]: 13.7 µg/dL
- patients in whom CRP decreased (C-reactive protein (CRP)): 69.2%
- CRP (mg/L) (C-reactive protein (CRP); Baseline): 3.6 (3.9) mg/L
- CRP (mg/L) (C-reactive protein (CRP); Day 22): 3.0 (4.5) mg/L
- decrease in plasma CRP (C-reactive protein (CRP); [18]): 1.4 mg/L
- effect on 24-hour urinary free cortisol [10]: statistically insignificant effects

SMILES: CCCC1O[C@@H]2C[C@H]3[C@@H]4CCC5=CC(=O)C=C[C@]5(C)[C@H]4[C@@H](O)C[C@]3(C)[C@]2(C(=O)CO)O1 (stereo partly shown) [budesonide, reference compound]
- Sputum eos (%) (sputum eosinophils; Baseline): 2.4 (3.3) %
- Sputum eos (%) (sputum eosinophils; Day 22): 1.0 (1.0) %
- Blood eos (%) (blood eosinophils; Baseline): 2.3 (2.3) %
- Blood eos (%) (blood eosinophils; Day 22): 2.1 (1.6) %
- severe adverse events [1]: one
- drug-related adverse events ([1]; 21 days): 9
- number of subjects that reported adverse events ([1]; 21 days): 7
- total treatment-emergent adverse events ([1]; 21 days): 39
- change in standing pulse pressure [2]: +4.85 mmHg
- ACSS ([3]; Baseline): 73.1 (14)
- ACSS ([3]; Day 22): 82.4 (8.4)
- mean sputum neutrophils (sputum neutrophils; [13]): 3.95%
- mean sputum neutrophils (sputum neutrophils; [14]): 51.9%
- mean sputum neutrophils (sputum neutrophils; [15]): 4.25%
- mean sputum neutrophils (sputum neutrophils; [16]): 55.1%
- median sputum neutrophils (sputum neutrophils; day 0 prior to therapy): 39.6%
- increase in median sputum neutrophils (sputum neutrophils; day 0 to day 22, all patients): 3.7%
- median sputum neutrophils (sputum neutrophils; day 22 (end of therapy)): 41.1%
- decrease in mean sputum neutrophils (sputum neutrophils; [17]): 5.8%
- Blood lymphocytes (%) (blood lymphocytes; Baseline): 14.9 (13) %
- Blood lymphocytes (%) (blood lymphocytes; Day 22): 22.5 (15.8) %
- Doses of Rescue Rx ([4]; Baseline): 17 (15)
- Rescue free days (%) ([4]; Baseline): 40.9 (41) %
- Doses of Rescue Rx ([4]; Day 22): 3.5 (4)
- Rescue free days (%) ([4]; Day 22): 68.4 (32) %
- PC20 (mg/ml) ([5]; Baseline): 1.4 (1.3) mg/ml
- PC20 (mg/ml) ([5]; Day 22): 2.0 (1.6) mg/ml
- FEV1 (ITT, L) (FEV1 spirometry; Baseline): 3.3 (0.8) L
- FEV1 (PD, L) (FEV1 spirometry; Baseline): 3.2 (0.7) L
- FEV1 (PD, L) (FEV1 spirometry; Day 1): 3.1 (0.6) L
- FEV1 (PD, L) (FEV1 spirometry; Day 14): 3.3 (0.7) L
- FEV1 (PD, L) (FEV1 spirometry; Day 15): 3.3 (0.7) L
- FEV1 (ITT, L) (FEV1 spirometry; Day 22): 3.3 (0.8) L
- FEV1 (PD, L) (FEV1 spirometry; Day 22): 3.3 (0.7) L
- PEF (AM, L/min) ([7]; Baseline): 405.5 (91) L/min
- PEF (AM, L/min) ([7]; Day 22): 423.4 (89.5) L/min
- eNO (ppb) ([8]; Baseline): 19 (17.6) ppb
- eNO (ppb) ([8]; Day 22): 9.8 (7.6) ppb
- decrease in eNO [8]: 9.2 ppb
- morning plasma cortisol level ([11]; baseline): 13.1 µg/dL
- morning plasma cortisol level ([11]; day 15): 10.9 µg/dL
- morning plasma cortisol level ([11]; day 22): 11.4 µg/dL
- patients in whom CRP decreased (C-reactive protein (CRP)): 33.2%
- CRP (mg/L) (C-reactive protein (CRP); Baseline): 2.7 (4.3) mg/L
- CRP (mg/L) (C-reactive protein (CRP); Day 22): 2.5 (1.4) mg/L
- increase in plasma CRP (C-reactive protein (CRP); [18]): 0.7 mg/L
- effect on 24-hour urinary free cortisol [12]: significantly decreased
